Consider 6 compounds from patent publication US11786600B2, “Cliptac composition” (OTSUKA PHARMACEUTICAL CO., LTD., priority 2016, dated 2023).

SMILES strings stand for the structures. Entries after “also recorded” stand apart in the source; their conditions may differ.

The target in test [1] is T1, BRD4 (Homo sapiens, UniProt O60885).
T1 construct: host or cells: HeLa
The test is described as follows: BRD4 degradation by self-assembling CLIPTACs in HeLa cells (immunoblot). The test is classed as cell-based. The conditions noted are these: for BRD4 level, time course: JQ1-TCO 10 μM then Tz-thalidomide 10 μM. As to the method: BRD4 presence was assessed by SDS-PAGE followed by Western Blot using a specific BRD4 antibody.
(§1) HeLa cells (purchased from ATCC) were cultured in Eagle's Minimum Essential Medium (EMEM) supplemented with 10% FBS (Gibco, Life Technologies), 0.1% NEAA (Non-Essential Amino Acid, Gibco, Life Technologies) and 2 mM glutamine and were grown at 37° C. with 5% CO2. A375 and HCT116 cells (purchased from ATCC) were cultured in Dulbecco's Modified Eagle Medium (DMEM) supplemented with 10% FBS (Gibco, Life Technologies) and were grown at 37° C. with 5% CO2.
(§2) The medium was removed and the cells were washed with PBS (2×). A375 and HCT116 cells were lysed with TG Lysis buffer (150 μL per well) and kept on ice for 20 min. The cell lysates were centrifuged at 14000 rpm for 10 min at 4° C. and the protein concentration was determined by a Pierce™ BCA Protein Assay Kit. Samples were normalised, separated on 4-12% NuPAGE gels (Life Technologies) and transferred onto a nitrocellulose membrane (Novex). The membrane was blocked in blocking buffer (Odyssey) at r.t. for 1 hour and subjected to immunodetection using a total ERK1/2 primary antibody (p44/42 MAPK ERK1/2, Cell Signaling Technologies®, 1:1000) and anti-actin antibody (Abcam ab6276, 1:10000) in blocking buffer, at r.t. for 1 hour. After washing 3× with a Tris-buffered saline (TBS) with 0.1% Tween-20 solution (TBST), the membrane was incubated with fluorescently labelled secondary antibody (IRDye800CW Donkey Anti-Rabbit, 1:10 000 and IRDye680RD Donkey Anti-Mouse, 1:10 000) for 1 hour at r.t. in the dark. After washing 2× with a TBS solution, the membrane was imaged on an Li-Cor Biosciences Odyssey system in the 800 nm and 700 nm channels.
The same procedure was followed with HeLa cells using RIPA Lysis buffer (150 μL per well) and 5% non-fat milk in TBST as blocking buffer. Immunodetection was performed using an anti-BRD4 antibody (Bethyl Laboratories, A301:985A100, 1:1000) and anti-actin antibody (Abcam ab6276, 1:10000) in 5% non-fat milk in TBST, at 4° C. for 48 hours.
(§3) HeLa, A375 and HCT116 cells were seeded in 6-well plates at 1.5.10^5 cells/mL with 2 mL/well and allowed to attach overnight before being incubated with the appropriate compounds. TCO-ligand was added from a 1000× stock in DMSO-d6 (2 μL) to the plates. The cells were incubated at 37° C. in an atmosphere of 5% CO2 and air for 18 hours. Tz-Thalidomide was added from a 1000× stock in DMSO-d6 (2 μL) to the plates. The cells were incubated at 37° C. in an atmosphere of 5% CO2 and air for 18 hours.
(§4) When Carfilzomib was used, the compound was added from a 1000× stock in DMSO-d6 (2 μL) 4 hours before the addition of Tz-thalidomide. For control experiments, untagged ligands were added instead of the TCO-compound and methyl-Tz-thalidomide was used instead of Tz-thalidomide. For the time course experiments, the cells were incubated for the indicated time after the addition of Tz-thalidomide and consequently lysed.
In general terms: A western blot detects proteins with antibodies after separation by electrophoresis.

For test [2], the target named is T2, BRD4-1 (Homo sapiens, UniProt O60885).
T2 construct: evaluated against both domains of BRD4, BRD4-1 and BRD4-2; Reaction Biology
The test can be described thus: AlphaScreen histone peptide displacement assay, BRD4-1. The class given is binding. From the text:
(§5) Experiments performed on HeLa cells.
(§6) FIG. 4: Biological evaluation of Tz-thalidomide against both domains of BRD4, BRD4-1 and BRD4-2. Biological evaluation of Tz-thalidomide (n=2) by AlphaScreen (performed by Reaction Biology).
(In Alpha technology, singlet oxygen from a donor bead excites a nearby acceptor bead.)

Test [3] concerns the target T3, BRD4-2 (Homo sapiens, UniProt O60885).
T3 construct: evaluated against both domains of BRD4, BRD4-1 and BRD4-2; Reaction Biology
The test is described as follows: AlphaScreen histone peptide displacement assay, BRD4-2. The class given is binding.
Source text: as §5, §6

Test [4] concerns ERK1/2. The test is described as follows: ERK1/2 degradation by self-assembling CLIPTACs in A375 cells (immunoblot). The test is classed as cell-based. The conditions noted are these: for ERK1/2 degradation, time course: Probe 1 10 μM then Tz-thalidomide 10 μM. As to the method:
(§7) ERK1 and 2 levels were assessed by SDS-PAGE followed by Western Blot using a total ERK1/2 antibody. […] At low concentration (0.1 μM), the level of ERK1/2 was unchanged. […] Quantitation of the signal intensities allowed calculation of a DC50 of 490 nM.
as §1, §2, §3, §4

The subject of test [5] is bromodomain family. The test can be described thus: Thermal shift selectivity across the bromodomain family. The test is classed as binding. The conditions noted are these: 10 μM, duplicate. As to the method: Finally, the selectivity profile of JQ1-TCO against the BET family was determined by thermal shift assay. […] (Liu et al. (2012) ChromoHub: a data hub for navigators of chromatin-mediated signalling. Bioinformatics 28: 2205-2206)
(b) Selectivity of JQ1-TCO (10 μM, duplicate, thermal shift) across the bromodomain family. (c) Immunoblot for BRD4 and Actin showing JQ1-TCO concentration dependent downregulation of BRD4 protein levels. HeLa cells were treated with JQ1-TCO for 18 hours followed by treatment with Tz-thalidomide (10 μM) for 18 hours. (d) Immunoblot for BRD4 and Actin showing Tz-thalidomide concentration dependent downregulation of BRD4 protein levels. HeLa cells were treated with JQ1-TCO (10 μM) for 18 hours followed by treatment with Tz-thalidomide for 18 hours. (e) Immunoblot for BRD4 and Actin showing time-dependent downregulation of BRD4 protein levels. HeLa cells were treated with JQ1-TCO (10 μM) for 18 hours followed by treatment with Tz-thalidomide (10 μM) for the indicated time. […] HeLa cells were treated with (−)JQ1-TCO for 18 hours followed by treatment with Tz-thalidomide for 18 hours. […] HeLa cells were treated with JQ1-TCO for 18 hours followed by treatment with Methyl-Tz-thalidomide for 18 hours. […] Experiments performed on HeLa cells.

The target in test [6] is T4, ERK2 (Homo sapiens, UniProt P28482).
T4 construct: host or cells: HCT116
T4 sequence (P28482 whole entry): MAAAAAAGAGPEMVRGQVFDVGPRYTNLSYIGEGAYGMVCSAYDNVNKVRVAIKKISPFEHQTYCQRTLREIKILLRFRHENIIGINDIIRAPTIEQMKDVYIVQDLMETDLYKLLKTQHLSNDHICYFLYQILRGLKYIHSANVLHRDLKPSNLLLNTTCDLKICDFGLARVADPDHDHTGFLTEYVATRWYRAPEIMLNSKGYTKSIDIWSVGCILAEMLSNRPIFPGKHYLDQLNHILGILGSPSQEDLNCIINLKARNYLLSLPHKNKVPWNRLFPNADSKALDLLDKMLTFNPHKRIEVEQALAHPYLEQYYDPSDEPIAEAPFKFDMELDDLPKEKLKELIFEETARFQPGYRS
The test is described as follows: ERK2 degradation by self-assembling CLIPTACs in HCT116 cells (immunoblot). The conditions noted are these: high concentrations of Probe 1 18 h then Tz-thalidomide 10 μM 18 h. The class given is cell-based. Here is the method:
as §7, §1
The medium was removed and the cells were washed with PBS (2×). A375 and HCT116 cells were lysed with TG Lysis buffer (150 μL per well) and kept on ice for 20 min. The cell lysates were centrifuged at 14000 rpm for 10 min at 4° C. and the protein concentration was determined by a Pierce™ BCA Protein Assay Kit. Samples were normalised, separated on 4-12% NuPAGE gels (Life Technologies) and transferred onto a nitrocellulose membrane (Novex). […]

Test [7] concerns A375 cells. The test can be described thus: Activity in A375 cells (GI50). The conditions noted are these: Homo sapiens, A-375. The test is classed as cell-based.
For test [8], the system named is ERK1/2. The test can be described thus: ERK1/2 degradation by self-assembling CLIPTACs in A375 cells (immunoblot). The test is classed as cell-based.
Where [9] appears, read: 4-hour pre-treatment with Carfilzomib (1 μM) in the CLIPTAC experiment.

What is called IC50 is the concentration at which inhibition is half-maximal. A lower IC50 goes with greater potency. With `Cc1sc2c(c1C)C(c1ccc(Cl)cc1)=N[C@H](CC(=O)NCCCNC(=O)OC1CC/C=C/CCC1)c1nnc(C)n1-2` (single isomer, unassigned; (-)) [(−)JQ1-TCO], the BRD4 degradation entry in test [1] ((−)JQ1-TCO at any concentration tested, then Tz-thalidomide 10 μM) was “no BRD4 degradation”. In addition, the IC50 came out at 13500 ± 210 nM in test [2] and 24300 ± 920 nM in test [3].

`CC(C)C[C@H](NC(=O)[C@H](CCc1ccccc1)NC(=O)CN1CCOCC1)C(=O)N[C@@H](Cc1ccccc1)C(=O)N[C@@H](CC(C)C)C(=O)[C@@]1(C)CO1` [Carfilzomib, reference compound]: the BRD4 level result in test [1] (setting [9]) is reported as “remained the same as in untreated cells”. The ERK1/2 degradation entry in test [4] (setting [9]) is reported as “rescued”.

On to `Cc1sc2c(c1C)C(c1ccc(Cl)cc1)=N[C@@H](CC(=O)NCCCNC(=O)OC1CC/C=C/CCC1)c1nnc(C)n1-2` (stereo partly drawn) [JQ1-TCO, (4E)-Cyclooct-4-en-1-yl N-(3-{2-[(9S)-7-(4-chlorophenyl)-4,5,13-trimethyl-3-thia-1,8,11,12-tetraazatricyclo[8.3.0.0^2,6]trideca-2(6),4,7,10,12-pentaen-9-yl]acetamido}propyl)carbamate], for which the figures for the “BRD4 level, time course” value in test [1] (after 16 hours), in test [1] (after 24 hours) and in test [1] (up to 8 hours) were “clearly dropped”, “complete degradation” and “unchanged”, respectively. Further, the BRD4 degradation entry is given as “partial degradation” in test [1] (JQ1-TCO 1 and 0.3 μM 18 h, then Tz-thalidomide 10 μM 18 h); “complete degradation” in test [1] (JQ1-TCO 10 and 3 μM 18 h, then Tz-thalidomide 10 μM 18 h). Further, the DC50 in test [1] (JQ1-TCO 18 h followed by fixed Tz-thalidomide (10 μM) 18 h, read-out: 50% degradation concentration (DC50) of BRD4) is 420 nM. In addition, in test [1] (compound alone), the BRD4 level entry was “unaffected”. Also, in test [5], the “Selectivity across the bromodomain family (thermal shift)” value is reported as “bind selectively to subfamily II”. The IC50 in test [2] is 16 ± 3 nM; in test [3] it was 63 ± 2 nM.

One may read the GI50 as the concentration at which growth is held to half of that of the control. For the compound `C=CC(=O)Nc1ccccc1Nc1nc(Nc2ccnc(C#CCCNC(=O)OC3CC/C=C/CCC3)c2)ncc1Cl` (stereo not drawn) [Probe 1, (4E)-Cyclooct-4-en-1-yl N-(4-{4-[(5-chloro-4-{[2-(prop-2-enamido)phenyl]amino}pyrimidin-2-yl)amino]pyridin-2-yl}but-3-yn-1-yl) carbamate], the ERK2 degradation result in test [6] was “complete degradation”. In test [7], this compound returned a GI50 of 470 ± 140 nM. Besides, the ERK1/2 level result is on record as “unchanged” in test [4] (Probe 1 0.1 μM 18 h then Tz-thalidomide 10 μM 18 h) and “unmodified” in test [4] (compound alone). Also, the “ERK1/2 degradation, time course” value in test [4] (after 8 hours) was “partially”; in test [4] (after 16 hours), “complete”. The ERK1/2 degradation entry in test [4] (Probe 1 0.3 and 1 μM 18 h then Tz-thalidomide 10 μM 18 h) is listed as “Partial degradation”. In test [4] (Probe 1 18 h then Tz-thalidomide 10 μM 18 h), this compound returned a DC50 of 490 nM. Besides, the ERK1/2 suppression entry in test [4] (Probe 1 at higher concentrations 18 h then Tz-thalidomide 10 μM 18 h) is on record as “complete”.

On to `Cc1nnc(-c2ccc(CNC(=O)CCCCCOc3cccc4c3C(=O)N(C3CCC(=O)NC3=O)C4=O)cc2)nn1` (stereo not drawn) [Tz-thalidomide, 6-{[2-(2,6-Dioxopiperidin-3-yl)-1,3-dioxo-2,3-dihydro-1H-isoindol-4-yl]oxy}-N-{[4-(6-methyl-1,2,4,5-tetrazin-3-yl)phenyl]methyl}hexanamide], for which the BRD4 degradation result in test [1] (JQ1-TCO 10 μM 18 h, then Tz-thalidomide 10 and 3 μM 18 h) was “completely degraded”; in test [1] (JQ1-TCO 10 μM 18 h, then Tz-thalidomide at lower concentrations 18 h), “partially”. Further, the BRD4 level entry in test [1] (compound alone) is given as “unaffected”. The ERK1/2 degradation profile result in test [8] (Probe 1 1 μM 4 hours then Tz-thalidomide 1 μM 18 hours) is listed as “best degradation profile”. Also, the ERK1/2 degradation result in test [8] (Probe 1 4 h then Tz-thalidomide 0.1 and 0.3 μM) is on record as “not observed”. In addition, the ERK1/2 level result in test [4] (compound alone) is given as “unmodified”.

`Cc1nnc(-c2ccc(CNC(=O)CCCCCOc3cccc4c3C(=O)N(C3CCC(=O)N(C)C3=O)C4=O)cc2)nn1` (stereo not drawn) [methyl-Tz-thalidomide, N-{[4-(6-Methyl-1,2,4,5-tetrazin-3-yl)phenyl]methyl}-6-{[2-(1-methyl-2,6-dioxopiperidin-3-yl)-1,3-dioxo-2,3-dihydro-1H-isoindol-4-yl]oxy}hexanamide]: the BRD4 level entry was “remained unchanged” in test [1] (JQ1-TCO 10 μM then methyl-Tz-thalidomide 10 μM) and “no BRD4 degradation” in test [1] (JQ1-TCO 10 μM then methyl-Tz-thalidomide 10 μM, listed as Methyl-Tz-thalidomide). Also, in test [4] (Probe 1 18 h then methyl-Tz-thalidomide 10 μM 18 h), the “ERK1/2 degradation compared with Tz-thalidomide” value is recorded as “far less effective; also recorded: reduced ERK1/2 degradation”.
